The results in this text go back to ChEMBL document CHEMBL1221226 (Nat Chem Biol, 2009).

Residues, ends and D or L forms follow the SMILES beside them. *: point of attachment. X1 = CC(CN[C@@H](Cc1cnc[nH]1)C(=O)O)C(=O)*

One assay deals with Glucagon receptor (Homo sapiens, UniProt P47871). The experiment in a line: Agonist activity at GCGR expressed in HEK293 cells assessed as stimulation of cAMP production by luciferase reporter gene assay. The format is functional, cell-based. A general note: Changes in cAMP serve as a functional read-out for many G protein-coupled receptors.
For assay [1], the target named is Glucagon-like peptide 1 receptor (Homo sapiens, UniProt P43220). Briefly: Agonist activity at GLP1R expressed in HEK293 cells assessed as stimulation of cAMP production by luciferase reporter gene assay. The format is functional, cell-based.
Sequence of Glucagon-like peptide 1 receptor (P43220 whole entry): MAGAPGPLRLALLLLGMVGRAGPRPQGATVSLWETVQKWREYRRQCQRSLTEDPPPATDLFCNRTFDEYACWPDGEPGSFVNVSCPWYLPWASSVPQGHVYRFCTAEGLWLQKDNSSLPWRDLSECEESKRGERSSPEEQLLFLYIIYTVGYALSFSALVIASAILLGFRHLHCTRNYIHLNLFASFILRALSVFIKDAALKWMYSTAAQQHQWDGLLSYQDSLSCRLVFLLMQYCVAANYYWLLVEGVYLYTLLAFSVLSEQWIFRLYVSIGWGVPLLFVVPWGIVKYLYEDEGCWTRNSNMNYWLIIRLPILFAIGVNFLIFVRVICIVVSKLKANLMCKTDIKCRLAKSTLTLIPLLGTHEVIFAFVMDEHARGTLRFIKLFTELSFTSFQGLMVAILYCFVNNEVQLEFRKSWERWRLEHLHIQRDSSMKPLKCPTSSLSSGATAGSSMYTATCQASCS

Sequence of Glucagon receptor (P47871 whole entry): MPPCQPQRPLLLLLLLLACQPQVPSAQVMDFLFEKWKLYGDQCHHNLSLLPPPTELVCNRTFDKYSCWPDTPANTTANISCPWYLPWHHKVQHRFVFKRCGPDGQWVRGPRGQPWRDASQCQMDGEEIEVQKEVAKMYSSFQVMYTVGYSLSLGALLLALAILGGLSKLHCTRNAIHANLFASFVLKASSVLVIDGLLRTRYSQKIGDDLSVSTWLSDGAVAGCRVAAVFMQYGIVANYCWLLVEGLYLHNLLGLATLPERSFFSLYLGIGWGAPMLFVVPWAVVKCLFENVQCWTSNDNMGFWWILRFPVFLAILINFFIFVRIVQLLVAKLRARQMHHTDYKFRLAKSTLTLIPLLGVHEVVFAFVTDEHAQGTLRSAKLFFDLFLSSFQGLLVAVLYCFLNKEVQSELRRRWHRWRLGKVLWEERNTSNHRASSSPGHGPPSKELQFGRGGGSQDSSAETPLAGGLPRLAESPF

As usually defined, the EC50 is the midpoint of the concentration-response curve. For the compound `CSCC[C@H](NC(=O)[C@H](CC(C)C)NC(=O)[C@H](Cc1c[nH]c2ccccc12)NC(=O)[C@H](CCC(N)=O)NC(=O)[C@@H](NC(=O)[C@H](Cc1ccccc1)NC(=O)[C@H](CC(=O)O)NC(=O)[C@H](CCC(N)=O)NC(=O)[C@H](C)NC(=O)[C@H](CCCNC(=N)N)NC(=O)[C@H](CCCNC(=N)N)NC(=O)C[C@H](CCC(=O)O)NC(=O)[C@H](CC(=O)O)NC(=O)[C@H](CC(C)C)NC(=O)[C@H](Cc1ccc(O)cc1)NC(=O)[C@H](CCCCN)NC(=O)[C@H](CO)NC(=O)[C@H](Cc1ccc(O)cc1)NC(=O)[C@H](CC(=O)O)NC(=O)[C@H](CO)NC(=O)[C@@H](NC(=O)[C@H](Cc1ccccc1)NC(=O)[C@@H](NC(=O)CNC(=O)[C@H](CCC(N)=O)NC(=O)[C@H](CO)N[C@@H](Cc1cnc[nH]1)C(=O)O)[C@@H](C)O)[C@@H](C)O)C(C)C)C(=O)N[C@@H](CC(N)=O)C(=O)N[C@H](C(N)=O)[C@@H](C)O`, the EC50 came out at 0.054 nM at Glucagon receptor and 0.13 nM in assay [1].

Regarding `CSCC[C@H](NC(=O)[C@H](CC(C)C)NC(=O)[C@H](Cc1c[nH]c2ccccc12)NC(=O)[C@H](CCC(N)=O)NC(=O)[C@@H](NC(=O)[C@H](Cc1ccccc1)NC(=O)[C@H](CC(=O)O)NC(=O)[C@H](CCC(N)=O)NC(=O)[C@H](C)NC(=O)[C@H](CCCNC(=N)N)NC(=O)[C@H](CCCNC(=N)N)NC(=O)[C@@H](NC(=O)[C@H](CC(=O)O)NC(=O)[C@H](CC(C)C)NC(=O)[C@H](Cc1ccc(O)cc1)NC(=O)[C@H](CCCCN)NC(=O)[C@H](CO)NC(=O)[C@H](Cc1ccc(O)cc1)NC(=O)[C@H](CC(=O)O)NC(=O)[C@H](CO)NC(=O)[C@@H](NC(=O)[C@H](Cc1ccccc1)NC(=O)[C@@H](NC(=O)CNC(=O)[C@H](CCC(N)=O)NC(=O)[C@H](CO)N[C@@H](Cc1cnc[nH]1)C(=O)O)[C@@H](C)O)[C@@H](C)O)[C@@H](C)O)C(C)C)C(=O)N[C@@H](CC(N)=O)C(=O)N[C@H](C(N)=O)[C@@H](C)O`, the EC50 was 0.13 nM at Glucagon receptor and 0.58 nM in assay [1].

Turning to `CSCC[C@H](NC(=O)[C@H](CC(C)C)NC(=O)[C@H](Cc1c[nH]c2ccccc12)NC(=O)[C@H](CCC(N)=O)NC(=O)[C@@H](NC(=O)[C@H](Cc1ccccc1)NC(=O)[C@H](CC(=O)O)NC(=O)[C@H](CCC(N)=O)NC(=O)[C@H](C)NC(=O)[C@H](CCCNC(=N)N)NC(=O)[C@H](CCCNC(=N)N)NC(=O)[C@H](CO)NC(=O)[C@H](CC(=O)O)NC(=O)[C@H](CC(C)C)NC(=O)[C@H](Cc1ccc(O)cc1)NC(=O)[C@H](CCCCN)NC(=O)[C@H](CO)NC(=O)[C@H](Cc1ccc(O)cc1)NC(=O)[C@H](CC(=O)O)NC(=O)[C@H](CO)NC(=O)[C@@H](NC(=O)[C@H](Cc1ccccc1)NC(=O)[C@@H](NC(=O)CNC(=O)[C@H](CCC(N)=O)NC(=O)[C@H](CO)N[C@@H](Cc1cnc[nH]1)C(=O)O)[C@@H](C)O)[C@@H](C)O)C(C)C)C(=O)N[C@@H](CC(N)=O)C(=O)N[C@H](C(N)=O)[C@@H](C)O`, the EC50 at Glucagon receptor turned out to be 0.15 nM; in assay [1] it was 0.6 nM.

Take `CSCC[C@H](NC(=O)[C@H](CC(C)C)NC(=O)[C@H](Cc1c[nH]c2ccccc12)NC(=O)[C@H](CCC(N)=O)NC(=O)[C@@H](NC(=O)[C@H](Cc1ccccc1)NC(=O)[C@H](CC(=O)O)NC(=O)[C@H](CCC(N)=O)NC(=O)[C@H](C)NC(=O)[C@H](CCCNC(=N)N)NC(=O)[C@H](CCCNC(=N)N)NC(=O)[C@H](CC(=O)O)NC(=O)[C@H](CC(=O)O)NC(=O)[C@H](CC(C)C)NC(=O)[C@H](Cc1ccc(O)cc1)NC(=O)[C@H](CCCCN)NC(=O)[C@H](CO)NC(=O)[C@H](Cc1ccc(O)cc1)NC(=O)[C@H](CC(=O)O)NC(=O)[C@H](CO)NC(=O)[C@@H](NC(=O)[C@H](Cc1ccccc1)NC(=O)[C@@H](NC(=O)CNC(=O)[C@H](CCC(N)=O)NC(=O)[C@H](CO)N[C@@H](Cc1cnc[nH]1)C(=O)O)[C@@H](C)O)[C@@H](C)O)C(C)C)C(=O)N[C@@H](CC(N)=O)C(=O)N[C@H](C(N)=O)[C@@H](C)O`: the half-maximal effective concentration (EC50) on Glucagon receptor was 0.068 nM; in assay [1], 0.57 nM.

For the compound `CSCC[C@H](NC(=O)[C@H](CC(C)C)NC(=O)[C@H](Cc1c[nH]c2ccccc12)NC(=O)[C@H](CCC(N)=O)NC(=O)[C@@H](NC(=O)[C@H](Cc1ccccc1)NC(=O)[C@H](CC(=O)O)NC(=O)[C@H](CCC(N)=O)NC(=O)[C@H](C)NC(=O)[C@H](CCCNC(=N)N)NC(=O)[C@H](CCCNC(=N)N)NC(=O)[C@H](CCC(=O)O)NC(=O)[C@H](CCC(=O)O)NC(=O)[C@H](CC(C)C)NC(=O)[C@H](Cc1ccc(O)cc1)NC(=O)[C@H](CO)NC(=O)[C@H](CO)NC(=O)[C@@H](NC(=O)[C@H](CC(=O)O)NC(=O)[C@H](CO)NC(=O)[C@@H](NC(=O)[C@H](Cc1ccccc1)NC(=O)[C@@H](NC(=O)CNC(=O)[C@H](CCC(=O)O)NC(=O)[C@H](C)NC(=O)[C@@H](N)Cc1cnc[nH]1)[C@@H](C)O)[C@@H](C)O)C(C)C)C(C)C)C(=O)N[C@@H](CC(N)=O)C(=O)N[C@H](C(=O)O)[C@@H](C)O` (H-HAEGTFTSDVSSYLEERRAQDFVQWLMNT-OH), the figures for the EC50 (on Glucagon receptor (hek293); in assay [1] (hek293)) were 50 nM and 0.18 nM, respectively.

Take `CSCC[C@H](NC(=O)[C@H](CC(C)C)NC(=O)[C@H](Cc1c[nH]c2ccccc12)NC(=O)[C@H](CCC(N)=O)NC(=O)[C@@H](NC(=O)[C@H](Cc1ccccc1)NC(=O)[C@H](CC(=O)O)NC(=O)[C@H](CCCCN)NC(=O)[C@H](C)NC(=O)[C@H](CCCN=C(N)N)NC(=O)[C@H](CCCN=C(N)N)NC(=O)[C@H](CO)NC(=O)[C@H](CC(=O)O)NC(=O)[C@H](CC(C)C)NC(=O)[C@H](Cc1ccc(O)cc1)NC(=O)[C@H](CCCCN)NC(=O)[C@H](CO)NC(=O)[C@H](Cc1ccc(O)cc1)NC(=O)[C@H](CC(=O)O)NC(=O)[C@H](CO)NC(=O)[C@@H](NC(=O)[C@H](Cc1ccccc1)NC(=O)[C@@H](NC(=O)CNC(=O)[C@H](CCC(N)=O)NC(=O)[C@H](CO)N[C@@H](Cc1cnc[nH]1)C(=O)O)[C@@H](C)O)[C@@H](C)O)C(C)C)C(=O)N[C@@H](CC(N)=O)C(=O)N[C@H](C(N)=O)[C@@H](C)O`: the half-maximal effective concentration (EC50) at Glucagon receptor worked out at 0.12 nM; in assay [1], 0.13 nM.

For `CC[C@H](C)[C@H](NC(=O)[C@H](Cc1ccccc1)NC(=O)[C@H](CCC(=O)O)NC(=O)[C@H](CCCCN)NC(=O)[C@H](C)NC(=O)[C@H](C)NC(=O)[C@H](CCC(N)=O)NC(=O)[C@H](CCC(=O)O)NC(=O)[C@H](CC(=O)O)NC(=O)[C@H](CC(C)C)NC(=O)[C@H](Cc1ccc(O)cc1)NC(=O)[C@H](CCCCN)NC(=O)[C@H](CO)NC(=O)[C@H](Cc1ccc(O)cc1)NC(=O)[C@H](CC(=O)O)NC(=O)[C@H](CO)NC(=O)[C@@H](NC(=O)[C@H](Cc1ccccc1)NC(=O)[C@@H](NC(=O)CNC(=O)[C@H](CCC(N)=O)NC(=O)C(C)CN[C@@H](Cc1cnc[nH]1)C(=O)O)[C@@H](C)O)[C@@H](C)O)C(=O)N[C@@H](C)C(=O)N[C@@H](Cc1c[nH]c2ccccc12)C(=O)N[C@@H](CC(C)C)C(=O)N[C@@H](CCSC)C(=O)N[C@@H](CC(N)=O)C(=O)N[C@H](C(=O)O)[C@@H](C)O` (stereo not given in full) (X1-QGTFTSDYSKYLDEQAAKEFIAWLMNT-OH), the values for the EC50 (at Glucagon receptor; in assay [1]) were 0.59 nM and 0.014 nM, respectively.

For `CSCC[C@H](NC(=O)[C@H](CC(C)C)NC(=O)[C@H](Cc1c[nH]c2ccccc12)NC(=O)[C@H](CCC(N)=O)NC(=O)[C@@H](NC(=O)[C@H](Cc1ccccc1)NC(=O)[C@H](CC(=O)O)NC(=O)[C@H](CCC(N)=O)NC(=O)[C@H](C)NC(=O)[C@H](CCCNC(=N)N)NC(=O)[C@H](CCCNC(=N)N)NC(=O)[C@H](Cc1c[nH]cn1)NC(=O)[C@H](CC(=O)O)NC(=O)[C@H](CC(C)C)NC(=O)[C@H](Cc1ccc(O)cc1)NC(=O)[C@H](CCCCN)NC(=O)[C@H](CO)NC(=O)[C@H](Cc1ccc(O)cc1)NC(=O)[C@H](CC(=O)O)NC(=O)[C@H](CO)NC(=O)[C@@H](NC(=O)[C@H](Cc1ccccc1)NC(=O)[C@@H](NC(=O)CNC(=O)[C@H](CCC(N)=O)NC(=O)[C@H](CO)N[C@@H](Cc1cnc[nH]1)C(=O)O)[C@@H](C)O)[C@@H](C)O)C(C)C)C(=O)N[C@@H](CC(N)=O)C(=O)N[C@H](C(N)=O)[C@@H](C)O`, the EC50 on Glucagon receptor stood at 0.1 nM; in assay [1], 0.23 nM.

Consider `CC[C@H](C)[C@H](NC(=O)[C@H](Cc1ccccc1)NC(=O)[C@H](CCC(=O)O)NC(=O)[C@H](CCCCN)NC(=O)[C@H](C)NC(=O)[C@H](C)NC(=O)[C@H](CCC(N)=O)NC(=O)[C@H](CCC(=O)O)NC(=O)[C@H](CC(=O)O)NC(=O)[C@H](CC(C)C)NC(=O)[C@H](Cc1ccc(O)cc1)NC(=O)[C@H](CCCCN)NC(=O)[C@H](CO)NC(=O)[C@H](Cc1ccc(O)cc1)NC(=O)[C@H](CC(=O)O)NC(=O)[C@H](CO)NC(=O)[C@@H](NC(=O)[C@H](Cc1ccccc1)NC(=O)[C@@H](NC(=O)CNC(=O)[C@H](CCC(=O)O)NC(=O)[C@H](CO)N[C@@H](Cc1cnc[nH]1)C(=O)O)[C@@H](C)O)[C@@H](C)O)C(=O)N[C@@H](C)C(=O)N[C@@H](Cc1c[nH]c2ccccc12)C(=O)N[C@@H](CC(C)C)C(=O)N[C@@H](CCSC)C(=O)N[C@@H](CC(N)=O)C(=O)N[C@H](C(=O)O)[C@@H](C)O`, for which the EC50 came to 2.4 nM at Glucagon receptor and 0.028 nM in assay [1].

Take `CSCC[C@H](NC(=O)[C@H](CC(C)C)NC(=O)[C@H](Cc1c[nH]c2ccccc12)NC(=O)[C@H](CCC(N)=O)NC(=O)[C@@H](NC(=O)[C@H](Cc1ccccc1)NC(=O)[C@H](CC(=O)O)NC(=O)[C@H](CCC(N)=O)NC(=O)[C@H](C)NC(=O)[C@H](CCCN=C(N)N)NC(=O)[C@H](CCCN=C(N)N)NC(=O)[C@H](CCC(=O)O)NC(=O)[C@H](CC(=O)O)NC(=O)[C@H](CC(C)C)NC(=O)[C@H](Cc1ccc(O)cc1)NC(=O)[C@H](CCCCN)NC(=O)[C@H](CO)NC(=O)[C@H](Cc1ccc(O)cc1)NC(=O)[C@H](CC(=O)O)NC(=O)[C@H](CO)NC(=O)[C@@H](NC(=O)[C@H](Cc1ccccc1)NC(=O)[C@@H](NC(=O)CNC(=O)[C@H](CCC(N)=O)NC(=O)[C@H](CO)N[C@@H](Cc1cnc[nH]1)C(=O)O)[C@@H](C)O)[C@@H](C)O)C(C)C)C(=O)N[C@@H](CC(N)=O)C(=O)N[C@H](C(=O)O)[C@@H](C)O`: the EC50 came to 0.053 nM on Glucagon receptor and 1.1 nM in assay [1].
